# According to PMC5794853 (Scientific Reports, 2018):
# T1: BsRelQ (Bacillus subtilis, UniProt O31611)
# T1 construct: gene yjbM; RelQ / SAS1, homotetramer
# T1 sequence (O31611 1-211): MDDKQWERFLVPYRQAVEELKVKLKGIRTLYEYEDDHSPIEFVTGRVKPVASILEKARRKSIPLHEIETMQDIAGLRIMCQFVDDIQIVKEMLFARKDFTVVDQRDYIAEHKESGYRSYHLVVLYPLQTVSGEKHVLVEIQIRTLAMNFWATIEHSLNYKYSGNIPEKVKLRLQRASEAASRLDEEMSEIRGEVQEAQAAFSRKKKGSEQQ
# B1: RelP from Bacillus subtilis (BsRelP) (enzyme, Bacillus subtilis PY79)
# chain: MDLSVTHMDDLKTVMEDWKNELLVYKFALDALDTKFSIISQEYNLIHGHNPIEHTKSRVKSFESIVNKLMRKGCEITTKEMKEHIHDIAGVRIICSFISDIYNVVNVLKQHEDLRIVKVKDYIQTPKPNGYRSLHLIIEMPVNLTNRVEYVKAEIQIRTIAMDFWASLEHKIYYKLNNDVPKQLTDELKEAAEIAHYLDEKMLGIKKEVD
# notes: RelP (SAS2, YwaC), small (p)ppGpp synthetase of Bacillus subtilis PY79, gene ywaC, amplified from genomic DNA; The strep-tag was encoded by the forward primer; cloned into pET24d(+) at NcoI/XhoI; No tag cleavage is described; also called SAS2; YwaC; source: E. coli BL21 (DE3), purified (StrepTrap, SEC)
# Experiments:
# BsRelQ [1] = molecular target: T2, BsRelQ (Bacillus subtilis, UniProt O31611, E113A); test: stimulation of ppGpp synthesis, HPLC; assay type: biochemical; conditions: allosteric activator, 200 µM; 5 mM ATP, 0.25 mM GDP/GTP, pH 7.5, 37 °C
# T2 construct: gene yjbM; RelQ / SAS1, homotetramer
# T2 sequence (O31611 whole entry E113A): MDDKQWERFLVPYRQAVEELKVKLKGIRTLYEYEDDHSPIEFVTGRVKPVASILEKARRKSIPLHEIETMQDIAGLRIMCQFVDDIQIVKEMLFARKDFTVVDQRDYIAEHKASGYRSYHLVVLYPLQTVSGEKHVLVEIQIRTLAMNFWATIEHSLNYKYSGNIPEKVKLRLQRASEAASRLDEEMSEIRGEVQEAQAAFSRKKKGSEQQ
# BsRelQ [2] = molecular target: T3, BsRelQ (Bacillus subtilis, UniProt O31611, H111A); test: stimulation of ppGpp synthesis, HPLC; assay type: biochemical; conditions: allosteric activator, 200 µM; 5 mM ATP, 0.25 mM GDP/GTP, pH 7.5, 37 °C
# T3 construct: gene yjbM; RelQ / SAS1, homotetramer
# T3 sequence (O31611 whole entry H111A): as the sequence (O31611 whole entry E113A) above, with H111A, A113E counted along it
# BsRelQ [3] = molecular target: T4, BsRelQ (Bacillus subtilis, UniProt O31611, E178A); test: stimulation of ppGpp synthesis, HPLC; assay type: biochemical; conditions: allosteric activator, 200 µM; 5 mM ATP, 0.25 mM GDP/GTP, pH 7.5, 37 °C
# T4 construct: gene yjbM; RelQ / SAS1, homotetramer
# T4 sequence (O31611 whole entry E178A): as the sequence (O31611 whole entry E113A) above, with A113E, E178A counted along it
# BsRelQ [4] = molecular target: T1, BsRelQ; test: stimulation of ppGpp synthesis, HPLC; assay type: biochemical; conditions: allosteric activator, 0-250 µM; 5 mM ATP, pH 7.5, 20 mM MgCl2
# BsRelQ [5] = molecular target: T5, BsRelQ (Bacillus subtilis, UniProt O31611, Q174A); test: stimulation of ppGpp synthesis, HPLC; assay type: biochemical; conditions: allosteric activator, 200 µM; 5 mM ATP, 0.25 mM GDP/GTP, pH 7.5, 37 °C
# T5 construct: gene yjbM; RelQ / SAS1, homotetramer
# T5 sequence (O31611 whole entry Q174A): as the sequence (O31611 whole entry E113A) above, with A113E, Q174A counted along it
# [6] = molecular target: RelP from Staphylococcus aureus (SaRelP) (Staphylococcus aureus strain Newman); test: crystal structure; apo SaRelP, 15 mg/ml, sitting drop at room temperature, 0.1 M CHES pH 9.5, 40% (v/v) PEG600; 2.25 Å; homotetramer
# SaRelP = molecular target: T6, SaRelP (Staphylococcus aureus, UniProt W8U368); test: X-ray crystal structure; assay type: binding; conditions: active site (ATP site), Mg2+, 5 mM AMPCPP, non-hydrolysable ATP analogue
# T6 construct: gene ywaC; full length, N-terminal hexahistidine tag, pET24d(+), expressed in E. coli BL21(DE3), homotetramer
# [7] = molecular target: the molecule itself; test: crystal structure; apo BsRelP, 10 mg/ml, sitting drop at room temperature, 0.1 M CHES pH 9.5, 30% (w/v) PEG 3000; 3.3 Å; homotetramer
molecule,measurement,setting,value
Nc1nc2c(ncn2[C@@H]2O[C@H](COP(=O)(O)OP(=O)(O)OP(=O)(O)O)[C@@H](OP(=O)(O)OP(=O)(O)O)[C@H]2O)c(=O)[nH]1 [pppGpp],"stimulation of ppGpp synthesis, HPLC",BsRelQ [1],Variation of His111 and Glu113 does not affect stimulation of BsRelQ
same,"stimulation of ppGpp synthesis, HPLC",BsRelQ [2],Variation of His111 and Glu113 does not affect stimulation of BsRelQ
same,"stimulation of ppGpp synthesis, HPLC",BsRelQ [3],upon replacement of Gln174 and Glu178 the pppGpp-stimulatory effect is decreased
same,"stimulation of ppGpp synthesis, HPLC",BsRelQ [4],determining the (p)ppGpp synthesis BsRelQ in presence of different concentrations of pppGpp
same,"stimulation of ppGpp synthesis, HPLC",BsRelQ [5],upon replacement of Gln174 and Glu178 the pppGpp-stimulatory effect is decreased
RelP from Staphylococcus aureus (SaRelP) (enzyme),stoichiometry N,[6],4
Nc1ncnc2c1ncn2[C@@H]1O[C@H](COP(=O)(O)CP(=O)(O)OP(=O)(O)O)[C@@H](O)[C@H]1O [AMPCPP],X-ray crystal structure,SaRelP,solve the structure of SaRelP in presence of AMPCPP
B1,stoichiometry N,[7],4
